Data: patent US11427595B2, “Compositions and methods for inhibiting viral infection” (Trustees of Boston University, priority 2018, dated 2022)
Like-named read-outs stand apart in the source and are kept apart here.

Assays:
[1] = tested on: Dengue virus (serotype 2, Thailand 16681 strain); format: cell-based; conditions: Huh7.5.1 cells, MOI 0.1, 2 μM for 3 h, viral RNA 48 h post-infection normalized against GAPDH
Huh7.5.1 cells [2] = assay: Cytotoxicity, CellTiter-Glo Cell Viability Luminescent Assay; format: cell-based, human
Protocol: (§1) To determine the […] of each compound, Huh7.5.1 cells were treated with compounds or DMSO at indicated doses for 3 h in 96-well plates. After removal of compounds, cells were further incubated for 72 h prior to the viability assay. The numbers of viable cells in culture were determined using the CellTiter-Glo Cell Viability Luminescent Assay kit according to the manufacturer's instruction (Promega). Percentages of toxicity were calculated using the formulas: 100-percentage of vial cells relative to that from the dimethyl sulfoxide (DMSO) treated group (100%) (n=3) (FIG. 20-FIG. 57).

JFH-1 HCVcc-Luc = assay: microbe, parasite or virus in culture; format: cell-based, Hepatitis C virus; conditions: for inhibition of HCV infection (in words): Huh7.5.1 cells, comparisons are to aglaroxin C (6); for EC50: Hepatitis C virus, Huh-7.5.1, read-out: EC50, inhibition of HCV infection
[3] = tested on: HCV replicon cell line 2-3+ (full-length HCV Genotype 1b RNA genome); assay: HCV replicon system: viral RNA replication and protein synthesis; format: cell-based, Hepatitis C virus; conditions: 2 μM for 3 h; for HCV protein synthesis (translation): NS5 by Western blotting after 48 or 72 h; for HCV RNA replication: viral RNA by real-time PCR after 48 or 72 h
Protocol: HCV replicon cell line 2-3+ was treated with the indicated compounds for 3 h. Cells were incubated for an additional 48 hours (FIG. 10A and FIG. 10C) or 72 hours (FIG. 10B and FIG. 10D). Cellular RNA or protein was isolated for quantifications of HCV viral RNA by real-time PCR (FIG. 10A and FIG. 10B) or […] NS5 by Western blotting (FIG. 10C and FIG. 10D).
Next, the ability of the aglaroxin C analogues to inhibit HCV RNA replication and mRNA translation was investigated using an HCV replicon system which harbors a full-length HCV Genotype 1b RNA genome. In replicon cells, HCV RNA replicates and is translated into viral proteins without forming infectious viruses. […] To corroborate these findings, an in vitro translation inhibition assay was assembled where a bicistronic reporter mRNA was programmed for translation in Krebs-2 extracts FIG. 11A-11B.
Cells and Antibodies. The human liver cell line Huh7.5.1 was provided by Scripps Research Institute. The full-length HCV Genotype 1b-replicon-containing cell line 2-3(+) was a gift from University of North Carolina, Chapel Hill, N.C. The Aedes albopictus cell line C6/36 was purchased from American Type Culture Collection (ATCC) (CRL-1660). All cell lines were maintained in DMEM supplemented with 5% penicillin and streptomycin, 1% NEAA, and 10% fetal bovine serum (FBS) (Gemini Bio-Products). The β-actin antibody (clone AC-74) was purchased from Sigma. The HCV NS5A monoclonal antibody 9E10 was a gift from Rockefeller University. Secondary antibodies were purchased from Jackson ImmunoResearch Laboratories, Inc, and Molecular Probes (Invitrogen). Primer sequences are: Dengue 16681: F: 5′-[…]-3′ (SEQ ID NO: 3); R: 5′-[…]-3′ (SEQ ID NO: 4). GAPDH: F: 5′-[…]-3′ (SEQ ID NO: 5); R: 5′-[…]-3′ (SEQ ID NO: 6).

HCVcc-Luc = assay: HCVcc time-of-addition assay; format: cell-based, Hepatitis C virus; conditions: Huh7.5.1 cells, 0.5 μM for 3 h, luciferase after 48 h
[4] = tested on: Dengue virus (serotype 2, Thailand 16681 strain); conditions: comparison named in the text, no data shown; cited from earlier work
[5] = tested on: Zika viral envelope protein-mediated entry; format: cell-based, Zika virus; conditions: Huh7.5 cells, FIG. 73C
[6] = tested on: JEV viral envelope protein-mediated entry; format: cell-based, Japanese encephalitis virus; conditions: Huh7.5 cells, FIG. 73C
[7] = tested on: Denv viral envelope protein-mediated entry; format: cell-based, Dengue virus; conditions: Huh7.5 cells, FIG. 73C
[8] = tested on: WNV viral envelope protein-mediated entry; format: cell-based, West Nile virus; conditions: Huh7.5 cells, FIG. 73C
translation = conditions: previous studies; cited from earlier work
[9] = tested on: OHFV viral envelope protein-mediated entry; format: cell-based, Omsk Hemorrhagic Fever Virus (OHFV)
[10] = tested on: HCV internal ribosome entry site (IRES)-dependent Renilla luciferase (RLuc) translation; assay: In vitro translation of bicistronic FF/HCV/Ren mRNA in Krebs-2 extracts, HCV IRES-dependent; format: biochemical, Hepatitis C virus; conditions: 1 μM, relative to DMSO
Description: (§2) In this system, Firefly luciferase (FLuc) translation is cap-dependent whereas Renilla luciferase (RLuc) expression HCV-IRES dependent. […] Results are presented relative to values obtained in the presence of DMSO ad expressed as mean±error of two biological replicates.
(§3) In this system, translation of the Firefly luciferase (FLuc) translation is cap-dependent whereas Renilla luciferase (RLuc) translation is dependent upon the HCV internal ribosome entry site (IRES) FIG. 11A.
(§4) In vitro transcriptions and translations were performed as described previously. Plasmid encoding the bicistronic FF/HCV/Ren open reading frame was linearized with BamHI and m^7Gppp-capped mRNA was produced by in vitro transcription reactions using SP6 RNA polymerase. In vitro translation reactions were performed with S10 extracts prepared from Kreb-2 cells and programmed with 4 ng/uL of in vitro transcribed mRNA. Firefly (FF) and Renilla (Ren) luciferase activities were measured on a Berthold Lumat LB9507 Luminometer and values normalized against vehicle control, which was set at 1.

CHIKVpp = format: cell-based, Chikungunya virus; conditions: Huh7.5.1 cells, racemates and single (+)-enantiomers, 1 μM or 2 μM for 3 h, luciferase after 48 h
HCVpp = format: cell-based, Hepatitis C virus; conditions: Huh7.5.1 cells, racemates and single (+)-enantiomers, 1 μM or 2 μM for 3 h, luciferase after 48 h
Ebolapp = format: cell-based, Ebola virus
VSVpp = format: cell-based, vesicular stomatitis virus
[11] = tested on: cap-dependent Firefly luciferase (FLuc) translation; assay: In vitro translation of bicistronic FF/HCV/Ren mRNA in Krebs-2 extracts, cap-dependent; format: biochemical; conditions: 1 μM, relative to DMSO
Description: as §2, §3, §4

[12] = Cytotoxicity, CellTiter-Glo Cell Viability Luminescent Assay; format: cell-based, human; conditions: human; Huh7.5.1 cells, 3 h treatment, viability after 72 h; concentration giving 50% cell death
Protocol: as §1

[13] = tested on: hepatitis C viral (HCV) entry into host cells; conditions: separate earlier studies; cited from earlier work
Huh7.5.1 cells [14] = assay: MTS cell viability assay; format: cell-based, human; conditions: 3 h treatment, 72 h incubation
Description: In this comparison, niclosamide was used as a positive control, which is known as HCV inhibitor (unclear mechanisms). Data from CellTiter-Glo assay was obtained from separate experiments conducted on a different date.
MTS (3-(4,5-dimethylthiazol-2-yl)-5-(3-carboxymethoxyphenyl)-2-(4-sulfophenyl)-2H-tetrazolium)) assay is a colorimetric assay used to determine the mitochondrial metabolic rate by quantifying the reduced formazan product of MTS in cells to reflect viable cells. To determine the CC50 of each compound, Huh7.5.1 cells were treated with compounds or DMSO at indicated doses for 3 h in 96-well plates. After removal of compounds, cells were further incubated for 72 h prior to conducting the viability assay. The MTS assay in this study is accordance with a protocol provided by manufacturer (Promega, Madison, Wis. USA). One-fifth volume of MTS reagent was added into the culture supernatant at indicated time points. Plates were incubated at 37° C. for 3 hours with 5% CO2 followed by measuring the absorbance at 490 nanometers (nm) with an ELISA reader (SpectraMax Plus 385, Molecular Devices, USA). Percentages of toxicity were calculated using the formulas: 100-percentage of vial cells relative to that from the dimethyl sulfoxide (DMSO) treated group (100%) (n=3) (FIG. 68-FIG. 71).

With `COc1ccc([C@@]23Oc4cc(OC)cc(OC)c4[C@]2(O)c2nc(-c4ccc(C)cc4)[nH]c(=O)c2[C@H]3c2ccccc2)cc1` [(+)-12l] the “inhibition of Dengue virus infection” value [1] was “inhibited Dengue virus infection”, the “maximum cytotoxicity plateau compared to racemic counterparts” value (Huh7.5.1 cells [2]; Huh7.5.1 cells) was “increased substantially” and the “inhibition of HCV infection (in words)” value (JFH-1 HCVcc-Luc) was “displayed HCV inhibition”. The “HCV protein synthesis (translation)” value [3] was “did not inhibit”, the “HCV RNA replication” value [3] was “did not inhibit” and the “anti-HCV activity when added together with the virus” value (from here on “anti-HCV activity … with the virus”) (HCVcc-Luc) was “inhibited HCV infection”.

In the case of `COc1ccc([C@@]23Oc4cc(OC)cc(OC)c4[C@]2(O)[C@H](O)[C@H](C(=O)N(C)C)[C@H]3c2ccccc2)cc1` [rocaglamide], the “inhibition of Dengue virus infection” value [4] is given as “inhibited Dengue virus infection”.

For `COc1ccc([C@@]23Oc4cc(OC)cc(OC)c4[C@]2(O)C2=C(C(=O)N4CCC[C@H]4N2)[C@H]3c2ccccc2)cc1` [compound 5, aglaiastatin], the “% infection, Zika envelope” value [5] was “under 1%”, the “% infection, JEV envelope” value [6] was “under 1%” and the “% infection, Denv envelope” value [7] was “under 1%”. The “% infection, WNV envelope” value [8] was “under 1%”, the “translation inhibition (in words)” value (translation) was “promising translation inhibitor” and the “% infection, OHFV envelope” value [9] was “under 1%”.

In the case of `COc1ccc([C@@]23Oc4cc(OC)cc(OC)c4[C@]2(O)c2nc(-c4cccc(OC)c4)[nH]c(=O)c2[C@H]3c2ccccc2)cc1` [(+)-12s], the “inhibition of Dengue virus infection” value [1] is reported as “inhibited Dengue virus infection”, the “maximum cytotoxicity plateau compared to racemic counterparts” value (Huh7.5.1 cells [2]; Huh7.5.1 cells) is reported as “increased substantially” and the “inhibition of HCV infection (in words)” value (JFH-1 HCVcc-Luc) is reported as “displayed HCV inhibition”. For the same molecule, the “HCV protein synthesis (translation)” value [3] was “did not inhibit” and the “HCV RNA replication” value [3] was “did not inhibit”.

In the case of `COc1ccc([C@@]23Oc4cc(OC)cc(OC)c4[C@]2(O)c2nc(-c4cccc(OC)c4)[nH]c(=O)c2[C@H]3c2ccccc2)cc1` (racemic) [12s, (5R,5aR,10bS)-10b-Hydroxy-8,10-dimethoxy-2-(3-methoxyphenyl)-5a-(4-methoxyphenyl)-5-phenyl-3,5,5a,10b-tetrahydro-4H-benzofuro[2′,3′:4,5]cyclopenta[1,2-d]pyrimidin-4-one], the “HCV mRNA (IRES-dependent) translation” value [10] is reported as “not inhibited”, the “inhibition of CHIKVpp infection” value (CHIKVpp) is reported as “specifically inhibited” and the “AUC0.2-200, area under the cytotoxicity curve (in words)” value (Huh7.5.1 cells [2]) is reported as “relatively lower cytotoxicities”. For the same molecule, the “inhibition of HCVpp infection” value (HCVpp) was “specifically inhibited”, the EC50 (JFH-1 HCVcc-Luc) was ~0.5 µM and the “inhibition of HCV infection (in words)” value (JFH-1 HCVcc-Luc) was “three-fold greater inhibition”. For the same molecule, the “inhibition of Ebolapp infection” value (Ebolapp) was “not”, the “HCV RNA replication” value [3] was “neither inhibit HCV RNA replication” and the “inhibition of VSVpp infection” value (VSVpp) was “not”. For the same molecule, the “anti-HCV activity when added 3 h after infection was initiated” value (“anti-HCV activity when added 3 h” for short) (HCVcc-Luc) was “partially lost their activity”, the “anti-HCV activity … with the virus” value (HCVcc-Luc) was “maximal anti-HCV activity” and the “anti-HCV activity … with the virus” value (HCVcc-Luc; listed as (±)-12s) was “inhibited HCV infection”. For the same molecule, the “translation inhibition of firefly luciferase (cap-dependent)” value (“translation inhibition … (cap-dependent)” for short) [11] was “minimal”.

For `COc1ccc([C@@]23Oc4cc(OC)cc(OC)c4[C@]2(O)c2nc4n(c(=O)c2[C@H]3c2ccccc2)CCC4)cc1` [compound 6, Aglaroxin C, reference compound], the “HCV mRNA (IRES-dependent) translation” value [10] was “not inhibited”, the “cytotoxicity (in words)” value (Huh7.5.1 cells [2]; Huh7.5.1 cells, comparisons are to aglaroxin C (6)) was “plateauing of cytotoxicity” and the CC50 [12] was 12 µM. The EC50 (JFH-1 HCVcc-Luc) was 1.3 µM, the “concentration inhibiting HCV entry into host cells” value [13] was “low μM concentration” and the “translation inhibition (in words)” value (translation) was “only moderate translation inhibition”. For the same molecule, the “HCV RNA replication” value [3] was “neither inhibit HCV RNA replication”, the “anti-HCV activity when added 3 h” value (HCVcc-Luc) was “partially lost their activity” and the “anti-HCV activity … with the virus” value (HCVcc-Luc) was “maximal anti-HCV activity”. The “translation inhibition … (cap-dependent)” value [11] was “minimal”.

For `COc1ccc([C@@]23Oc4cc(OC)cc(OC)c4[C@]2(O)c2nc(-c4ccc(C)cc4)[nH]c(=O)c2[C@H]3c2ccccc2)cc1` (racemic) [12l, (5R,5aR,10bS)-10b-Hydroxy-8,10-dimethoxy-5a-(4-methoxyphenyl)-5-phenyl-2-(p-tolyl)-3,5,5a,10b-tetrahydro-4H-benzofuro[2′,3′:4,5]cyclopenta[1,2-d]pyrimidin-4-one], the “HCV mRNA (IRES-dependent) translation” value [10] was “not inhibited”, the “inhibition of CHIKVpp infection” value (CHIKVpp) was “specifically inhibited” and the “AUC0.2-200, area under the cytotoxicity curve (in words)” value (Huh7.5.1 cells [2]) was “relatively lower cytotoxicities”. The “inhibition of HCVpp infection” value (HCVpp) was “specifically inhibited”, the EC50 (JFH-1 HCVcc-Luc) was ~0.5 µM and the “inhibition of HCV infection (in words)” value (JFH-1 HCVcc-Luc) was “three-fold greater inhibition”. The “toxicity curve in MTS assay compared with CellTiter-Glo assay” value (Huh7.5.1 cells [14]) was “nearly identical toxicity curves”, the “inhibition of Ebolapp infection” value (Ebolapp) was “not” and the “HCV RNA replication” value [3] was “neither inhibit HCV RNA replication”. The “inhibition of VSVpp infection” value (VSVpp) was “not”, the “anti-HCV activity when added 3 h” value (HCVcc-Luc) was “partially lost their activity” and the “anti-HCV activity … with the virus” value (HCVcc-Luc) was “maximal anti-HCV activity”. The “translation inhibition … (cap-dependent)” value [11] was “minimal”.
